Results taken from PMC10612037 (Viruses, 2023).
Where a name gives a salt, the structure may show the parent alone.

How the values were obtained:
[1] = test system: HIV-1 reverse transcriptase (endogenous RT in virions); test: Endogenous reverse transcriptase assay; format: biochemical; details: K65R virions
[2] = test system: HIV-1 NL4-3; test: Dose-response assay in TZM-GFP cells, NL4-3 molecular clones with RT mutations; details: for major resistance observed: all NL4-3 mutants tested, major = >12-fold for ISL, >4-fold for TDF
[3] = test system: HIV-1 xxLAI; test: microbe, parasite or virus in culture; format: cell-based; details: Human immunodeficiency virus 1; unpassaged HIV-1 xxLAI WT stock virus
[4] = test system: HIV-1 subtypes A, B, C, D, CRF_AE, CRF_AG; test: Dose-response assay in TZM-GFP cells, diverse primary isolates
[5] = test system: HIV-1 isolates B, C, CRF_AE, CRF_AG; format: cell-based
[6] = test system: HIV-1 RT; parameters: method as in earlier work; details: K65R RT; cited from earlier work
[7] = cited from earlier work

Structure (SMILES) | resistance phenotype (IC50 fold change from WT) [1] | fold resistance relative to WT (EC50 fold change) ([2]; NL4-3 K65R) | major resistance observed [2] | EC50 [3] | EC50 fold change from NL4-3 ([4]; subtype A) | EC50 fold change from NL4-3 ([4]; subtype B) | EC50 fold change from NL4-3 ([4]; subtype C) | EC50 fold change from NL4-3 ([4]; subtype D) | fold more sensitive than WT (EC50) ([2]; NL4-3 K65R) | fold more susceptible, K65R with Ser68 vs K65R with Gly68 ([5]; CRF_AE backbone) | susceptibility of Ser68 compared with Gly68 ([5]; CRF_AE backbone) | sensitivity of mutant relative to WT ([5]; K65R, regardless of the isolate (B, C, CRF_AE, CRF_AG)) | fold more susceptible than wildtype RT [6] | EC50 fold change from NL4-3 ([4]; all subtypes (A, B, C, D, CRF_AE, CRF_AG), 8-10 isolates each) | tolerability ([7]; early clinical studies in humans) | effect on CD4 T cell population ([7]; lower dose of ISL) | effect on CD4 T cells ([7]; subsequent clinical studies, patients on ISL)
C[C@@H](Cn1cnc2c(N)ncnc21)OCP(=O)(O)OP(=O)(O)OP(=O)(O)O [TFV-DP] | conferred resistance | – | – | – | – | – | – | – | – | – | – | – | – | – | – | – | –
CC(C)OC(=O)OCOP(=O)(CO[C@H](C)Cn1cnc2c(N)ncnc21)OCOC(=O)OC(C)C [TDF, Tenofovir disoproxil fumarate] | – | 3 fold | No major resistance | 24.6 nM | 1.3 fold | 2.2 fold | 2.2 fold | 1.6 fold | – | – | – | – | – | – | – | – | –
C#C[C@]1(CO)O[C@@H](n2cnc3c(N)nc(F)nc32)C[C@@H]1O [ISL, 4′-ethynyl-2-fluoro-2′-deoxyadensine] | – | – | No major resistance | 3.6 nM | – | – | – | – | 4 fold | 3 fold | more susceptible | hypersensitivity | 4 fold | no more than 1.3 fold | well tolerated | without any effects on the CD4 T cell population | decline in CD4 T cells
